Test results as given in PubChem BioAssay (NCI).
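Interpolation was linear, between the two tested concentrations surrounding the appropriate level; five concentrations were tested over 48 hours in 96-well plates. The concentration for 50% growth inhibition is given as GI50. TGI: concentration producing complete growth inhibition.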

What was measured:
Assay in all cases: growth of human tumour cells (NCI), 48 h
SR leukemia = test system: SR leukemia
786-0 renal = test system: 786-0 renal
BT-549 breast = test system: BT-549 breast
HOP-62 NSCLC = test system: HOP-62 NSCLC
UACC-257 melanoma = test system: UACC-257 melanoma
SK-MEL-2 melanoma = test system: SK-MEL-2 melanoma
OVCAR-3 ovarian = test system: OVCAR-3 ovarian
MDA-MB-435 = test system: MDA-MB-435
HOP-92 NSCLC = test system: HOP-92 NSCLC
HS 578T breast = test system: HS 578T breast
A549 NSCLC = test system: A549 NSCLC
KM12 colon = test system: KM12 colon
PC-3 prostate = test system: PC-3 prostate
K-562 leukemia = test system: K-562 leukemia
TK-10 renal = test system: TK-10 renal
SK-OV-3 ovarian = test system: SK-OV-3 ovarian
MALME-3M melanoma = test system: MALME-3M melanoma
SW-620 colon = test system: SW-620 colon
A498 renal = test system: A498 renal
MCF7 breast = test system: MCF7 breast
OVCAR-8 ovarian = test system: OVCAR-8 ovarian
T-47D breast = test system: T-47D breast
MOLT-4 leukemia = test system: MOLT-4 leukemia
COLO 205 colon = test system: COLO 205 colon
SF-539 CNS = test system: SF-539 CNS
MDA-MB-231 breast = test system: MDA-MB-231 breast
HCC-2998 colon = test system: HCC-2998 colon
NCI/ADR-RES ovarian = test system: NCI/ADR-RES ovarian
OVCAR-4 ovarian = test system: OVCAR-4 ovarian
SNB-19 CNS = test system: SNB-19 CNS
SNB-75 CNS = test system: SNB-75 CNS
NCI-H460 lung = test system: NCI-H460 lung
DU-145 prostate = test system: DU-145 prostate
SK-MEL-5 melanoma = test system: SK-MEL-5 melanoma
NCI-H522 lung = test system: NCI-H522 lung
CCRF-CEM leukemia = test system: CCRF-CEM leukemia
SF-268 CNS = test system: SF-268 CNS
ACHN renal = test system: ACHN renal
SK-MEL-28 melanoma = test system: SK-MEL-28 melanoma
RPMI-8226 leukemia = test system: RPMI-8226 leukemia
IGROV1 ovarian = test system: IGROV1 ovarian
CAKI-1 renal = test system: CAKI-1 renal
SF-295 CNS = test system: SF-295 CNS
M14 melanoma = test system: M14 melanoma
HCT-116 colon = test system: HCT-116 colon
OVCAR-5 ovarian = test system: OVCAR-5 ovarian
NCI-H23 lung = test system: NCI-H23 lung
SN12C renal = test system: SN12C renal
HCT-15 colon = test system: HCT-15 colon
UO-31 renal = test system: UO-31 renal
EKVX NSCLC = test system: EKVX NSCLC
HL-60(TB) leukemia = test system: HL-60(TB) leukemia
NCI-H226 lung = test system: NCI-H226 lung
RXF 393 renal = test system: RXF 393 renal
LOX IMVI melanoma = test system: LOX IMVI melanoma
HT29 colon = test system: HT29 colon
UACC-62 melanoma = test system: UACC-62 melanoma
U251 CNS = test system: U251 CNS

COc1cc(/C=C2\CCCC3=C2N=C2SC(C)=NN2C3c2cc(OC)c(OC)c(OC)c2)cc(OC)c1OC (configuration not stated)
GI50 (SR leukemia): 0.347 µM
TGI (SR leukemia): > 100 µM
GI50 (786-0 renal): > 100 µM
TGI (786-0 renal): > 100 µM
GI50 (BT-549 breast): > 100 µM
TGI (BT-549 breast): > 100 µM
GI50 (HOP-62 NSCLC): > 100 µM
TGI (HOP-62 NSCLC): > 100 µM
GI50 (UACC-257 melanoma): > 100 µM
TGI (UACC-257 melanoma): > 100 µM
GI50 (SK-MEL-2 melanoma): > 100 µM
TGI (SK-MEL-2 melanoma): > 100 µM
GI50 (OVCAR-3 ovarian): 0.58 µM
TGI (OVCAR-3 ovarian): > 100 µM
GI50 (MDA-MB-435): 0.341 µM
TGI (MDA-MB-435): > 100 µM
GI50 (HOP-92 NSCLC): > 100 µM
TGI (HOP-92 NSCLC): > 100 µM
GI50 (HS 578T breast): > 100 µM
TGI (HS 578T breast): > 100 µM
GI50 (A549 NSCLC): > 100 µM
TGI (A549 NSCLC): > 100 µM
GI50 (KM12 colon): 0.322 µM
TGI (KM12 colon): > 100 µM
GI50 (PC-3 prostate): > 100 µM
TGI (PC-3 prostate): > 100 µM
GI50 (K-562 leukemia): 0.42 µM
TGI (K-562 leukemia): > 100 µM
GI50 (TK-10 renal): > 100 µM
TGI (TK-10 renal): > 100 µM
GI50 (SK-OV-3 ovarian): > 100 µM
TGI (SK-OV-3 ovarian): > 100 µM
GI50 (MALME-3M melanoma): > 100 µM
TGI (MALME-3M melanoma): > 100 µM
GI50 (SW-620 colon): 0.41 µM
TGI (SW-620 colon): > 100 µM
GI50 (A498 renal): 0.153 µM
TGI (A498 renal): > 100 µM
GI50 (MCF7 breast): 0.319 µM
TGI (MCF7 breast): > 100 µM
GI50 (OVCAR-8 ovarian): 0.311 µM
TGI (OVCAR-8 ovarian): > 100 µM
GI50 (T-47D breast): > 100 µM
TGI (T-47D breast): > 100 µM
GI50 (MOLT-4 leukemia): 0.391 µM
TGI (MOLT-4 leukemia): > 100 µM
GI50 (COLO 205 colon): 0.429 µM
TGI (COLO 205 colon): > 100 µM

C=C(C)[C@@H]1CC[C@]2(C(=O)NS(=O)(=O)c3ccccc3)CC[C@]3(C)[C@H](CC[C@@H]4[C@@]5(C)CC[C@H](OC(=O)NS(=O)(=O)c6ccccc6)C(C)(C)[C@@H]5CC[C@]43C)[C@@H]12
GI50 (786-0 renal): 2.42 µM
TGI (786-0 renal): 6.93 µM
GI50 (SF-539 CNS): 1.27 µM
TGI (SF-539 CNS): 2.59 µM
GI50 (BT-549 breast): 1.79 µM
TGI (BT-549 breast): 6.31 µM
GI50 (MDA-MB-231 breast): 2.92 µM
TGI (MDA-MB-231 breast): 12.1 µM
GI50 (HOP-62 NSCLC): 2.33 µM
TGI (HOP-62 NSCLC): 6.83 µM
GI50 (HCC-2998 colon): 1.42 µM
TGI (HCC-2998 colon): 2.85 µM
GI50 (NCI/ADR-RES ovarian): 3.87 µM
TGI (NCI/ADR-RES ovarian): 24 µM
GI50 (UACC-257 melanoma): 3.06 µM
TGI (UACC-257 melanoma): 9.06 µM
GI50 (OVCAR-4 ovarian): 3.04 µM
TGI (OVCAR-4 ovarian): 51.4 µM
GI50 (SNB-19 CNS): 3.42 µM
TGI (SNB-19 CNS): 18.2 µM
GI50 (SNB-75 CNS): 3.44 µM
TGI (SNB-75 CNS): 18.5 µM
GI50 (NCI-H460 lung): 1.49 µM
TGI (NCI-H460 lung): 3.26 µM
GI50 (DU-145 prostate): 3.18 µM
TGI (DU-145 prostate): 13.8 µM
GI50 (SK-MEL-2 melanoma): 2.01 µM
TGI (SK-MEL-2 melanoma): 4.97 µM
GI50 (SK-MEL-5 melanoma): 1.48 µM
TGI (SK-MEL-5 melanoma): 2.98 µM
GI50 (NCI-H522 lung): 2.48 µM
TGI (NCI-H522 lung): 9.19 µM
GI50 (OVCAR-3 ovarian): 1.85 µM
TGI (OVCAR-3 ovarian): 3.62 µM
GI50 (CCRF-CEM leukemia): 2.29 µM
TGI (CCRF-CEM leukemia): 19.5 µM
GI50 (SF-268 CNS): 3.03 µM
TGI (SF-268 CNS): 32.1 µM
GI50 (MDA-MB-435): 1.77 µM
TGI (MDA-MB-435): 4.89 µM
GI50 (ACHN renal): 2.73 µM
TGI (ACHN renal): 9 µM
GI50 (SK-MEL-28 melanoma): 2.05 µM
TGI (SK-MEL-28 melanoma): 5.32 µM
GI50 (HOP-92 NSCLC): 1.9 µM
TGI (HOP-92 NSCLC): 4.72 µM
GI50 (RPMI-8226 leukemia): 1.37 µM
TGI (RPMI-8226 leukemia): 6.18 µM
GI50 (HS 578T breast): 1.49 µM
TGI (HS 578T breast): 10.1 µM
GI50 (A549 NSCLC): 3.24 µM
TGI (A549 NSCLC): 21.8 µM
GI50 (IGROV1 ovarian): 2.46 µM
TGI (IGROV1 ovarian): 5.56 µM
GI50 (CAKI-1 renal): 3.06 µM
TGI (CAKI-1 renal): 22.5 µM
GI50 (SF-295 CNS): 0.281 µM
TGI (SF-295 CNS): 2.23 µM
GI50 (KM12 colon): 1.34 µM
TGI (KM12 colon): 2.96 µM
GI50 (M14 melanoma): 1.99 µM
TGI (M14 melanoma): 6.89 µM
GI50 (PC-3 prostate): 2.11 µM
TGI (PC-3 prostate): 20.6 µM
GI50 (HCT-116 colon): 1.47 µM
TGI (HCT-116 colon): 3.56 µM
GI50 (OVCAR-5 ovarian): 3.02 µM
TGI (OVCAR-5 ovarian): 11.8 µM
GI50 (NCI-H23 lung): 2.41 µM
TGI (NCI-H23 lung): 8.51 µM
GI50 (SN12C renal): 2.34 µM
TGI (SN12C renal): 15.7 µM
GI50 (K-562 leukemia): 1.41 µM
TGI (K-562 leukemia): 17.3 µM
GI50 (HCT-15 colon): 1.62 µM
TGI (HCT-15 colon): 4.65 µM
GI50 (TK-10 renal): 2.43 µM
TGI (TK-10 renal): 10.3 µM
GI50 (UO-31 renal): 1.49 µM
TGI (UO-31 renal): 3.04 µM
GI50 (SK-OV-3 ovarian): 2.6 µM
TGI (SK-OV-3 ovarian): 8.22 µM
GI50 (EKVX NSCLC): 3.17 µM
TGI (EKVX NSCLC): 21.9 µM
GI50 (HL-60(TB) leukemia): 2.24 µM
TGI (HL-60(TB) leukemia): 5.08 µM
GI50 (NCI-H226 lung): 2.38 µM
TGI (NCI-H226 lung): 13.8 µM
GI50 (RXF 393 renal): 1.61 µM
TGI (RXF 393 renal): 3.26 µM
GI50 (MALME-3M melanoma): 2.09 µM
TGI (MALME-3M melanoma): 5.32 µM
GI50 (SW-620 colon): 3.27 µM
TGI (SW-620 colon): 15.2 µM
GI50 (A498 renal): 1.65 µM
TGI (A498 renal): 4.69 µM
GI50 (LOX IMVI melanoma): 1.56 µM
TGI (LOX IMVI melanoma): 3.06 µM
GI50 (HT29 colon): 2.03 µM
TGI (HT29 colon): 11 µM
GI50 (MCF7 breast): 2.93 µM
TGI (MCF7 breast): 10.8 µM
GI50 (OVCAR-8 ovarian): 2.89 µM
TGI (OVCAR-8 ovarian): 19.1 µM
GI50 (UACC-62 melanoma): 1.32 µM
TGI (UACC-62 melanoma): 2.92 µM
GI50 (T-47D breast): 1.74 µM
TGI (T-47D breast): 7.37 µM
GI50 (MOLT-4 leukemia): 2.58 µM
TGI (MOLT-4 leukemia): 24 µM
GI50 (COLO 205 colon): 1.54 µM
TGI (COLO 205 colon): 3.08 µM
GI50 (U251 CNS): 1.46 µM
TGI (U251 CNS): 5.96 µM
